Results as given in patent publication US20250011881A1, “MYC-HSF1 DUAL AMPLIFICATION AS A BIOMARKER FOR CANCER TREATMENT” (The Trustees of Indiana University, priority 2023, published 2025).
Several values for one entry are separate records, joined by “and”; a condition that tells them apart may be missing. Identical values can stand only once.

Columns and labels:
[1] = system: ovarian cancer cells with (OVCAR8, OVCAR4) or without (OVSAHO, CAOV3) MYC-HSF1 amplification; assay: Epigenetic inhibitor drug screen, cell viability (Cell Titer Blue); type: cell-based; conditions: 10 uM, 48 hrs, average relative cell viability (vs 1% DMSO) of non-amplified cells (OVSAHO, CAOV3) minus that of MYC-HSF1 amplified cells (OVCAR8, OVCAR4), positive = greater response in amplified cells, 10 µM
[2] = system: HSF1 and MYC target genes in OVCAR8; assay: RT-qPCR of HSF1 and MYC target genes after entinostat; type: cell-based; conditions: OVCAR8, 24 hrs
Protocol: FIG. 6B is a bar graph depicting mRNA relative fold change in OVCAR8 cells treated with entinostat at the indicated doses for 24 hours. Total RNA from the cells was subjected to RT-qPCR or the indicated transcripts.
Results of this screen indicated 45 of the top 54 hits were compounds that targeted histone deacetylases (HDACs). (Table 1). To test the effect of HDAC inhibitors on cell lines having dual copy number gain in both MYC and HSF1, we treated OVCAR8 (positive for MYC-HSF1 amplification) for 24 hrs with an HDAC inhibitor, etinostat. Total RNA from treated cells was subjected to RTqPCR. To conduct the RTqPCR, RNA was extracted from cells using an RNA isolation kit with DNAse treatment (Zymo). RNA was subjected to reverse transcription using RT Master Mix (Applied Biosystems). qPCR was performed with SYBR Green Master Mix (Applied Biosystems) using a QuantStudio3 (Applied Biosystems). Experiments were performed in biological triplicate and analyzed using the […].

[3] = system: MYC and HSF1 protein in OVCAR8 cells; assay: Immunoblot of MYC and HSF1 after entinostat; type: cell-based; conditions: OVCAR8, 24 hours
Protocol: FIG. 6C and FIG. 6D are immunoblots of OVCAR8 cells treated with entinostat at the indicated doses for 24 hours. Total protein from the cells was subjected to immunoblotting with the indicated antibodies.
Immunoblotting and co-immunoprecipitation was performed as described above. Antibodies for immunoblotting and immunoprecipitation included MYC (CST), HSF1 (CST), GAPDH (CST). […] Through the innovative method of screening potential therapeutics against cells having dual amplification of MYC and HSF1, Applicant was able to identify potential therapeutic targets, HDAC inhibitors, and therapeutics having increased efficacy against these cancer cells.

[4] = system: cell lines with dual amplification (OVCAR8, SNU119, OVCAR4, and COV362); assay: Volasertib IC50, cell viability, MYC-HSF1 dual amplified cell lines; type: cell-based
Protocol: (§1) PLK1 is an active therapeutic target with several compounds targeting this kinase inPLK1 inhibitor that has shown promise as an effective cancer therapy in early phase clinical trials (Rudolph et al. Clin Cancer Res 2009; 15:3094-102;Pujade-Lauraine et al. J Clin Oncol 2016;34:706-13; Xie et al. Am J Cancer Res 2015;5:3548-59). […] To assess whether a PLK1 inhibitor has specificity for MYC-HSFIdual-amplified ovarian cancer cells, the IC50 for volasertib was assessed in cell lines with dual amplification (OVCAR8, SNU119, OVCAR4, and COV362) and in cell lines without dual amplification (OVSAHO, CAOV3, PEO1, OVCAR3).
(§2) The effectiveness of volasertib on MYC-HSF1 dual amplified cancer cells was also analyzed in several cell growth models. […] Cell viability assays were performed with Cell Titer Blue (Promega) as we previously described (Carpenter et al. Oncotarget 2017;8:73947-63). Clonogenic growth assays were performed by seeding <1000 cells into 6-well plates and staining with crystal violet after 7 days of growth. Colonies were quantified using FIJI.

[5] = system: cell lines without dual amplification (OVSAHO, CAOV3, PEO1, OVCAR3); assay: Volasertib IC50, cell viability, non-amplified cell lines; type: cell-based; conditions: average of OVSAHO, read-out: IC50 in non-amplified cells
Protocol: as §1, §2

[6] = system: MYC and HSF1 protein in OVCAR8 cells; assay: Immunoblot time course of MYC and HSF1 protein after volasertib; type: cell-based; conditions: OVCAR8, volasertib 1 nM, 0 to 18 hours
Protocol: (§3) Considering PLK1 phosphorylation previously indicated affects the protein stability of MYC and HSF1, it was tested whether volasertib affects MYC or HSF1 protein levels. A time course study was performed where samples were treated with volasertib for time ranges of 0 to 18hours. […] Similarly, the effect of volasertib was tested on the activity of HSF1 using an HSE luciferase reporter.
Immunoblotting and Immunoprecipitation: Immunoblotting and co-immunoprecipitation was performed as we have previously described (Lu et al., bioRxiv 2020:2020.08.31.275909). Antibodies for immunoblotting and immunoprecipitation included MYC (CST), HSF1 (CST), β-actin (CST), GAPDH (CST), FLAG (Sigma), and p-HSF1 (S326) (Abcam).

[7] = system: HSF1 activity in OVCAR8 cells; assay: HSE luciferase reporter assay; type: cell-based; conditions: OVCAR8, volasertib 1 nM, increasing time of treatment
Protocol: FIG. 4E is a bar graph representing OVCAR8 cells subjected to HSE luciferase assay with treatment of volasertib (1 nM) for the indicated times.
as §3
Luciferase Reporter Assays: Luciferase reporter assays were performed as we previously described (Lu et al. bioRxiv 2020:2020.08.31.275909). The HSF1 activity reporter contains multiple heat shock element (HSE) motifs driving firefly luciferase. Experiments were performed with co-transfection of a constitutively active renilla reporter. Analysis was completed by dividing firefly activity by renilla activity.

[8] = system: MYC-HSF1 dual amplified cells (OVCAR8, OVCAR4, SNU119); assay: Clonogenic growth assay; type: cell-based; conditions: 7 days, crystal violet
Protocol: FIG. 5A depicts bar graphs showing clonogenic growth observed for OVCAR8, OVCAR4 and SNU119 cell lines subjected to the indicated dose of volasertib (BI-6727). Control cells were subjected to 1% DMSO instead of volasertib. Colonies were grown for 7 days prior to staining with crystal violet and quantification was completed with FIJI software.
as §2

[9] = system: OVCAR8 (MYC-HSF1 co-amplified) cells; assay: Tumor spheroid growth, co-amplified cells; type: cell-based; conditions: OVCAR8, 7 days
Protocol: FIG. 5B and FIG. 5C represent OVCAR8 (MYC-HSF1 co-amplified) and CAOV3 (non-amplified) cells subjected to tumor spheroid growth in the presence or absence of volasertib at the indicated doses. Spheroids were quantified by manual counting. The impact volasertib on spheroid growth in the two different cell lines is shown photographically (FIG. 5B) and graphically (FIG. 5C).
Ovarian cancer cells (1000-2000) were seeded into 24-well ultra-low attachment plates (Corning) and grown in serum-free spheroid media as we previously described (Wang et al., Mol Cancer Ther 2021). Spheroids were grown in the presence or absence of volasertib for 7 days. Spheroids were quantified by manual counting.

[10] = system: OVCAR8 cells in the flank of nude mice; assay: OVCAR8 flank tumor growth in nude mice; type: in vivo; conditions: 15 or 20 mg/kg twice per week for five weeks
Protocol: (§4) FIG. 5D represents OVCAR8 cells (5e5) grown in the flank of nude mice until a volume between 50-100 mm^3 were achieved. Mice were then randomized to receive either vehicle, 15mg/kg, or 20 mg/kg volasertib twice per week. Tumor volume was measured with calipers (FIG. 5D) and body weight was measured (FIG. 5E) throughout the study.
(§5) Lastly, we evaluated the efficacy of the PLK1 inhibitor, volasertib, on tumor growth in vivo. OVCAR8 cells (5e5) were injected into the flank of nude mice and tumors were allowed to develop until 50-100 mm^3. Mice then received either vehicle (PBS) or 15 or 20 mg/kg volasertib twice per week for five weeks. Body weight and tumor volume were measured twice per week.

[11] = Body weight of tumor-bearing nude mice; type: in vivo; conditions: 15 or 20 mg/kg twice per week for five weeks
Protocol: as §4, §5

ovarian cancer patients = conditions: cited from earlier work
[12] = single agent, ovarian cancer patients

Compound | Non Amp - AMP (POC) 10 uM ([1]; listed as Entinostat (MS-275, SNDX-275)) | Non Amp - AMP (POC) 10 uM ([1]; listed as MS-275 (entinostat)) | levels of HSF1 and MYC target genes (mRNA) [2] | protein levels of MYC and HSF1 [3] | IC50 ([4]; average of OVCAR8, SNU119, OVCAR4, COV362, read-out: IC50 for volasertib in MYC-HSF1 dual amplified cells) | fold difference of IC50, non-amplified vs MYC-HSF1 dual amplified cells ([4]; enhanced efficacy in dual amplified ovarian cancer cells) | IC50 [5] | MYC and HSF1 protein levels [6] | HSF1 activity (HSE luciferase reporter) [7] | clonogenic growth [8] | spheroid growth, MYC-HSF1 dual amplified cells [9] | tumor growth in vivo [10] | body weight [11] | toxicity and safety for use in humans (ovarian cancer patients; early phase clinical trials) | 24-week disease control rate (ovarian cancer patients; [12]) | patients with partial responses (ovarian cancer patients; [12]) | patients with progression-free survival for more than one year (ovarian cancer patients; single agent, none in patients receiving cytotoxic chemotherapy)
Nc1ccccc1NC(=O)c1ccc(CNC(=O)OCc2cccnc2)cc1 [Entinostat] | 52.31 POC | 65.06 POC | significantly reduced levels of HSF1 and MYC target genes | reduced protein levels of both MYC and HSF1 | – | – | – | – | – | – | – | – | – | – | – | – | –
CC[C@@H]1C(=O)N(C)c2cnc(Nc3ccc(C(=O)N[C@H]4CC[C@H](N5CCN(CC6CC6)CC5)CC4)cc3OC)nc2N1C(C)C [volasertib] | – | – | – | – | 0.033 µM | > 200 fold and 200 fold | 7.8 µM | loss of MYC and HSF1 protein after 3hours of volasertib exposure | increasing inhibition of HSF1 activity | strong inhibition of clonogenic growth | inhibit spheroid growth | strongly regress tumor growth | no change in body weight | favorable toxicity and safety | 30% | 13% | 11%
